The test concerns BDF1 mice, P388 leukemia ip, median survival T/C. Description: NCI In Vivo Anticancer Drug Screen. Data for tumor model P388 Leukemia (intraperitoneal) in B6D2F1 (BDF1) mice. Conditions: endpoint: median survival time, higher = longer survival. In a few lines:
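Read-out is survival of treated animals expressed relative to the vehicle group, as a T/C ratio.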

[1] abbreviates: dose: 50.0 mg/kg/injection, schedule: Q04DX003 (ip), vehicle: saline with Tween-80.
Setting [2] is: dose: 100.0 mg/kg/injection, schedule: Q04DX003 (ip), vehicle: saline with Tween-80.
[3] abbreviates: dose: 200.0 mg/kg/injection, schedule: Q04DX003 (ip), vehicle: saline with Tween-80.
[4] abbreviates: dose: 400.0 mg/kg/injection, schedule: Q04DX003 (ip), vehicle: saline with Tween-80.
Setting [5] is: dose: 50.0 mg/kg/injection, schedule: Q01DX009 (ip), vehicle: saline with Tween-80.
[6] abbreviates: dose: 100.0 mg/kg/injection, schedule: Q01DX009 (ip), vehicle: saline with Tween-80.
The mark [7] stands for this setting: dose: 200.0 mg/kg/injection, schedule: Q01DX009 (ip), vehicle: saline with Tween-80.
[8] abbreviates: dose: 6.25 mg/kg/injection, schedule: Q01DX009 (ip), vehicle: saline.
Setting [9] is: dose: 25.0 mg/kg/injection, schedule: Q01DX009 (ip), vehicle: saline.

“And” between values parts separate entries of the source, which are not always exact repeats. Equal entries are not always repeated. Inconclusive results and toxic doses are left out. Starred links: 1 amine or outer side, 2 acyl side, 3 side chain; linkers in the order of their positions; H or OH if unused. Positions of bridges follow the written chain, without caps; N, C: chain ends. Non-standard residues stand in square brackets, D forms with d. Residues, ends and D or L forms follow the SMILES beside them. Chains are numbered I, II in the order given. Actinocin(1to9) = Cc1c2oc3c(C)ccc(C(=O)[*:2])c3nc-2c(C(=O)[*:1])c(N)c1=O; NMeV = CN[CH](C(=O)O)C(C)C; Sar = CNCC(=O)O

Take `CCC(C)C1NC(=O)C(NC(=O)c2c3nc4c(C(=O)NC5C(=O)NC(C(C)C)C(=O)N6CCCC6C(=O)N(C)CC(=O)N(C)C(C(C)C)C(=O)OC5C)ccc(C)c4oc-3c(C)c(=O)c2N)C(C)OC(=O)C(C(C)C)N(C)C(=O)CN(C)C(=O)C2CCCN2C1=O` (stereo not drawn) (I: TIP[Sar][NMeV] / II: TVP[Sar][NMeV]; ester I:1-I:C, II:1-II:C; linker I:N-II:N via Actinocin(1to9); configuration not given here): the T/C was 300 % of control (dose: 0.05 mg/kg/injection, schedule: Q01DX010 (ip), vehicle: saline); 100 % of control (dose: 0.1 mg/kg/injection, schedule: Q01DX010 (ip), vehicle: saline); 175 % of control (dose: 0.2 mg/kg/injection, schedule: Q01DX001 (ip), vehicle: water); 155 % of control (dose: 0.4 mg/kg/injection, schedule: Q01DX001 (ip), vehicle: water); 175 % of control (dose: 0.8 mg/kg/injection, schedule: Q01DX001 (ip), vehicle: water); 118 % of control (dose: 3.1 micrograms/kg/injection, schedule: Q01DX001 (ip), vehicle: saline). Besides, the T/C is, setting by setting: (dose: 3.1 micrograms/kg/injection, schedule: Q01DX010 (ip), vehicle: saline) 180 % of control; (dose: 3.1 micrograms/kg/injection, schedule: Q04DX003 (ip), vehicle: saline) 118 % of control; (dose: 6.0 micrograms/kg/injection, schedule: Q01DX010 (ip), vehicle: saline) 180 % of control; (dose: 6.2 micrograms/kg/injection, schedule: Q01DX010 (ip), vehicle: saline) 190 % of control; (dose: 6.3 micrograms/kg/injection, schedule: Q01DX001 (ip), vehicle: saline) 109 % of control; (dose: 12.5 micrograms/kg/injection, schedule: Q01DX009 (ip), vehicle: water) 213 % of control. Besides, the T/C was 228 % of control and 220 % of control (dose: 12.5 micrograms/kg/injection, schedule: Q01DX010 (ip), vehicle: saline); 215 % of control (dose: 25.0 micrograms/kg/injection, schedule: Q01DX009 (ip), vehicle: water); 285 % of control and 220 % of control (dose: 25.0 micrograms/kg/injection, schedule: Q01DX010 (ip), vehicle: saline); 154 % of control (dose: 25.0 micrograms/kg/injection, schedule: Q04DX003 (ip), vehicle: saline); 150 % of control (dose: 50.0 micrograms/kg/injection, schedule: Q01DX001 (ip), vehicle: saline); 215 % of control (dose: 50.0 micrograms/kg/injection, schedule: Q01DX009 (ip), vehicle: water). Besides, the T/C was 285 % of control and 300 % of control (dose: 50.0 micrograms/kg/injection, schedule: Q01DX010 (ip), vehicle: saline); 190 % of control (dose: 50.0 micrograms/kg/injection, schedule: Q04DX003 (ip), vehicle: saline); 172 % of control (dose: 75.0 micrograms/kg/injection, schedule: Q04DX003 (ip), vehicle: water); 159 % of control (dose: 100.0 micrograms/kg/injection, schedule: Q01DX001 (ip), vehicle: saline); 243 % of control (dose: 100.0 micrograms/kg/injection, schedule: Q01DX009 (ip), vehicle: water); 110 % of control (dose: 100.0 micrograms/kg/injection, schedule: Q01DX010 (ip), vehicle: saline). Further, the T/C is 186 % of control (dose: 100.0 micrograms/kg/injection, schedule: Q04DX003 (ip), vehicle: saline); 181 % of control (dose: 150.0 micrograms/kg/injection, schedule: Q04DX003 (ip), vehicle: water); 186 % of control (dose: 200.0 micrograms/kg/injection, schedule: Q01DX001 (ip), vehicle: saline); 90 % of control (dose: 200.0 micrograms/kg/injection, schedule: Q01DX010 (ip), vehicle: saline); 231 % of control (dose: 200.0 micrograms/kg/injection, schedule: Q04DX003 (ip), vehicle: saline); 241 % of control (dose: 300.0 micrograms/kg/injection, schedule: Q04DX003 (ip), vehicle: water). Moreover, the T/C by setting is: (dose: 400.0 micrograms/kg/injection, schedule: Q01DX001 (ip), vehicle: saline) 218 % of control; (dose: 400.0 micrograms/kg/injection, schedule: Q04DX003 (ip), vehicle: saline) 263 % of control; (dose: 600.0 micrograms/kg/injection, schedule: Q04DX003 (ip), vehicle: water) 267 % of control.
`CC1=C(C)Cc2c(c(OC(=O)c3ccccc3)cc(Cl)c2OC(=O)c2ccccc2)C1`: the T/C (dose: 12.5 mg/kg/injection, schedule: Q04DX003 (ip), vehicle: saline with Tween-80) was 94 % of control; the T/C (dose: 25.0 mg/kg/injection, schedule: Q04DX003 (ip), vehicle: saline with Tween-80) is 94 % of control; the T/C under setting [1] was 92 % of control; the T/C under setting [2] was 90 % of control; the T/C under setting [3] is 93 % of control; the T/C under setting [4] is 94 % of control.
As for `CC(=O)c1ccccc1[N+](=O)[O-]`, the T/C runs as follows: under setting [5], 95 % of control; under setting [6], 100 % of control; under setting [2], 95 % of control; under setting [7], 86 % of control; under setting [3], 90 % of control; under setting [4], 100 % of control.
As for `CCCCCCCCC(C(=O)c1ccccc1)C(O)(C(F)(F)F)C(F)(F)F` (stereo not drawn), the T/C by setting is: under setting [5], 90 % of control; under setting [6], 95 % of control; under setting [2], 95 % of control; under setting [7], 109 % of control; under setting [3], 115 % of control; under setting [4], 115 % of control.
Consider `O=S(=O)(Cc1ccccc1)C(Cl)(Cl)c1ccccc1`, for which the T/C under setting [1] was 100 % of control, the T/C under setting [2] is 104 % of control and the T/C under setting [3] was 109 % of control.
With `CN(C)C(c1ccccc1)C(CBr)C(=O)c1ccc(Br)cc1` (stereo not drawn), the T/C is 110 % of control under setting [8]; 109 % of control and 116 % of control (dose: 16.5 mg/kg/injection, schedule: Q01DX009 (ip), vehicle: saline); 100 % of control and 118 % of control under setting [9]; 104 % of control (dose: 27.5 mg/kg/injection, schedule: Q04DX003 (ip), vehicle: saline); 113 % of control and 120 % of control (dose: 37.5 mg/kg/injection, schedule: Q01DX009 (ip), vehicle: saline); 100 % of control (dose: 55.0 mg/kg/injection, schedule: Q04DX003 (ip), vehicle: saline).
Consider `NCC(O)CSc1ccccc1` (stereo not drawn), for which the T/C is 95 % of control under setting [9]; 100 % of control (dose: 50.0 mg/kg/injection, schedule: Q01DX009 (ip), vehicle: saline); 106 % of control (dose: 100.0 mg/kg/injection, schedule: Q01DX009 (ip), vehicle: saline).
In the case of `O=C(O)C(Cc1cccc(F)c1)NC(=O)C(F)(F)F` (stereo not drawn), the T/C reads like this: (dose: 1.56 mg/kg/injection, schedule: Q01DX009 (ip), vehicle: saline) 105 % of control; (dose: 3.13 mg/kg/injection, schedule: Q01DX009 (ip), vehicle: saline) 96 % of control; under setting [8], 104 % of control.
In the case of `Cc1nc2ccccc2nc1CI`, the T/C runs as follows: (dose: 2.9 mg/kg/injection, schedule: Q01DX009 (ip), vehicle: saline) 110 % of control; (dose: 4.5 mg/kg/injection, schedule: Q01DX009 (ip), vehicle: saline) 120 % of control; (dose: 10.0 mg/kg/injection, schedule: Q04DX003 (ip), vehicle: saline) 115 % of control; (dose: 17.0 mg/kg/injection, schedule: Q01DX009 (ip), vehicle: saline) 100 % of control and 116 % of control; (dose: 20.0 mg/kg/injection, schedule: Q04DX003 (ip), vehicle: saline) 110 % of control; (dose: 26.0 mg/kg/injection, schedule: Q01DX009 (ip), vehicle: saline) 110 % of control. Besides, the T/C was 88 % of control (dose: 30.0 mg/kg/injection, schedule: Q01DX001 (ip), vehicle: Klucel (hydroxypropylcellulose) (HPC)); 100 % of control and 116 % of control (dose: 40.0 mg/kg/injection, schedule: Q01DX009 (ip), vehicle: saline); 110 % of control (dose: 40.0 mg/kg/injection, schedule: Q04DX003 (ip), vehicle: saline).
For `Nc1cc(N)cc(Cc2ccccc2)c1`, the T/C was 112 % of control (dose: 50.0 mg/kg/injection, schedule: Q01DX009 (ip), vehicle: Klucel (hydroxypropylcellulose) (HPC)); 116 % of control (dose: 100.0 mg/kg/injection, schedule: Q01DX009 (ip), vehicle: Klucel (hydroxypropylcellulose) (HPC)); 116 % of control (dose: 200.0 mg/kg/injection, schedule: Q01DX009 (ip), vehicle: Klucel (hydroxypropylcellulose) (HPC)).

The values are drawn from PubChem BioAssay AID328 (DTP/NCI, 2004).
